Measured values: the NIST ThermoML archive (doi:10.1016/j.jct.2005.04.015)
Numbers after ± are expanded uncertainties.

Experiment: excess molar enthalpy (molar enthalpy of mixing); xn = mol fraction of the nth substance listed
Settings: Liquid, Flow calorimetry

CCOC=O [ethyl methanoate] + CCC(C)O
excess molar enthalpy [kcal/mol]
Settings | 298.15 K | 308.15 K
5000 kPa, x1 = 0.1504 | 0.234 ± 0.00502 | –
5000 kPa, x1 = 0.1997 | 0.29 ± 0.00621 | –
5000 kPa, x1 = 0.2497 | 0.336 ± 0.00717 | –
5000 kPa, x1 = 0.3005 | 0.373 ± 0.00789 | –
5000 kPa, x1 = 0.3501 | 0.4 ± 0.0086 | –
5000 kPa, x1 = 0.4005 | 0.418 ± 0.00884 | –
5000 kPa, x1 = 0.4497 | 0.429 ± 0.00908 | –
5000 kPa, x1 = 0.4996 | 0.432 ± 0.00932 | –
5000 kPa, x1 = 0.5502 | 0.427 ± 0.00908 | –
5000 kPa, x1 = 0.5995 | 0.414 ± 0.00884 | –
5000 kPa, x1 = 0.6496 | 0.394 ± 0.00837 | –
5000 kPa, x1 = 0.7003 | 0.365 ± 0.00789 | –
5000 kPa, x1 = 0.7496 | 0.328 ± 0.00693 | –
5000 kPa, x1 = 0.7996 | 0.284 ± 0.00598 | –
5000 kPa, x1 = 0.8996 | 0.156 ± 0.00335 | –
5000 kPa, x1 = 0.9494 | 0.0812 ± 0.00179 | –
10000 kPa, x1 = 0.0492 | 0.0843 ± 0.00184 | –
10000 kPa, x1 = 0.0496 | – | 0.101 ± 0.0022
10000 kPa, x1 = 0.0992 | 0.17 ± 0.00359 | –
10000 kPa, x1 = 0.1 | – | 0.197 ± 0.0043
10000 kPa, x1 = 0.15 | 0.243 ± 0.00526 | –
10000 kPa, x1 = 0.1513 | – | 0.276 ± 0.00598
10000 kPa, x1 = 0.1985 | 0.3 ± 0.00645 | –
10000 kPa, x1 = 0.2007 | – | 0.337 ± 0.00717
10000 kPa, x1 = 0.2509 | 0.348 ± 0.00741 | 0.386 ± 0.00837
10000 kPa, x1 = 0.2992 | – | 0.422 ± 0.00908
10000 kPa, x1 = 0.301 | 0.383 ± 0.00813 | –
10000 kPa, x1 = 0.3487 | 0.407 ± 0.0086 | –
10000 kPa, x1 = 0.351 | – | 0.451 ± 0.00956
10000 kPa, x1 = 0.4004 | 0.425 ± 0.00908 | –
10000 kPa, x1 = 0.4008 | – | 0.47 ± 0.01
10000 kPa, x1 = 0.4495 | 0.436 ± 0.00932 | –
10000 kPa, x1 = 0.4514 | – | 0.479 ± 0.0103
10000 kPa, x1 = 0.4994 | 0.439 ± 0.00932 | –
10000 kPa, x1 = 0.4999 | – | 0.481 ± 0.0103
10000 kPa, x1 = 0.5491 | – | 0.475 ± 0.01
10000 kPa, x1 = 0.5501 | 0.433 ± 0.00932 | –
10000 kPa, x1 = 0.599 | – | 0.46 ± 0.0098
10000 kPa, x1 = 0.6015 | 0.42 ± 0.00908 | –
10000 kPa, x1 = 0.6497 | – | 0.436 ± 0.00932
10000 kPa, x1 = 0.6502 | 0.402 ± 0.0086 | –
10000 kPa, x1 = 0.6996 | 0.373 ± 0.00789 | –
10000 kPa, x1 = 0.7011 | – | 0.405 ± 0.0086
10000 kPa, x1 = 0.7497 | 0.331 ± 0.00717 | –
10000 kPa, x1 = 0.7502 | – | 0.363 ± 0.00789
10000 kPa, x1 = 0.8 | – | 0.314 ± 0.00669
10000 kPa, x1 = 0.8006 | 0.284 ± 0.00598 | –
10000 kPa, x1 = 0.8485 | 0.223 ± 0.00478 | –
10000 kPa, x1 = 0.8506 | – | 0.255 ± 0.0055
10000 kPa, x1 = 0.8986 | – | 0.185 ± 0.00406
10000 kPa, x1 = 0.9008 | 0.154 ± 0.00335 | –
10000 kPa, x1 = 0.95 | 0.0895 ± 0.00196 | –
10000 kPa, x1 = 0.9506 | – | 0.0966 ± 0.0021

CCOC=O [ethyl methanoate] + CC(C)O
Settings | excess molar enthalpy [kcal/mol]
298.15 K, 5000 kPa, x1 = 0.0498 | 0.0806 ± 0.00177
298.15 K, 5000 kPa, x1 = 0.0993 | 0.158 ± 0.00335
298.15 K, 5000 kPa, x1 = 0.1485 | 0.221 ± 0.00478
298.15 K, 5000 kPa, x1 = 0.2008 | 0.276 ± 0.00598
298.15 K, 5000 kPa, x1 = 0.2493 | 0.317 ± 0.00669
298.15 K, 5000 kPa, x1 = 0.3009 | 0.35 ± 0.00741
298.15 K, 5000 kPa, x1 = 0.3488 | 0.373 ± 0.00789
298.15 K, 5000 kPa, x1 = 0.3997 | 0.391 ± 0.00837
298.15 K, 5000 kPa, x1 = 0.4503 | 0.4 ± 0.0086
298.15 K, 5000 kPa, x1 = 0.5005 | 0.403 ± 0.0086
298.15 K, 5000 kPa, x1 = 0.5504 | 0.398 ± 0.0086
298.15 K, 5000 kPa, x1 = 0.5999 | 0.389 ± 0.00837
298.15 K, 5000 kPa, x1 = 0.6492 | 0.372 ± 0.00789
298.15 K, 5000 kPa, x1 = 0.7013 | 0.344 ± 0.00741
298.15 K, 5000 kPa, x1 = 0.7498 | 0.311 ± 0.00669
298.15 K, 5000 kPa, x1 = 0.8012 | 0.267 ± 0.00574
298.15 K, 5000 kPa, x1 = 0.8997 | 0.156 ± 0.00335
298.15 K, 5000 kPa, x1 = 0.95 | 0.0857 ± 0.00189
298.15 K, 10000 kPa, x1 = 0.0497 | 0.0741 ± 0.00163
298.15 K, 10000 kPa, x1 = 0.099 | 0.152 ± 0.00335
298.15 K, 10000 kPa, x1 = 0.1516 | 0.218 ± 0.00478
298.15 K, 10000 kPa, x1 = 0.2003 | 0.271 ± 0.00574
298.15 K, 10000 kPa, x1 = 0.2487 | 0.311 ± 0.00669
298.15 K, 10000 kPa, x1 = 0.3002 | 0.345 ± 0.00741
298.15 K, 10000 kPa, x1 = 0.3514 | 0.368 ± 0.00789
298.15 K, 10000 kPa, x1 = 0.3989 | 0.383 ± 0.00813
298.15 K, 10000 kPa, x1 = 0.4495 | 0.393 ± 0.00837
298.15 K, 10000 kPa, x1 = 0.4997 | 0.396 ± 0.00837
298.15 K, 10000 kPa, x1 = 0.5496 | 0.393 ± 0.00837
298.15 K, 10000 kPa, x1 = 0.5991 | 0.384 ± 0.00813
298.15 K, 10000 kPa, x1 = 0.6484 | 0.368 ± 0.00789
298.15 K, 10000 kPa, x1 = 0.7006 | 0.34 ± 0.00717
298.15 K, 10000 kPa, x1 = 0.7492 | 0.31 ± 0.00669
298.15 K, 10000 kPa, x1 = 0.8006 | 0.265 ± 0.00574
298.15 K, 10000 kPa, x1 = 0.8994 | 0.157 ± 0.00335
298.15 K, 10000 kPa, x1 = 0.9499 | 0.0864 ± 0.00189
308.15 K, 10000 kPa, x1 = 0.0487 | 0.0511 ± 0.00115
308.15 K, 10000 kPa, x1 = 0.1 | 0.139 ± 0.00311
308.15 K, 10000 kPa, x1 = 0.1511 | 0.211 ± 0.00454
308.15 K, 10000 kPa, x1 = 0.1988 | 0.267 ± 0.00574
308.15 K, 10000 kPa, x1 = 0.2492 | 0.313 ± 0.00669
308.15 K, 10000 kPa, x1 = 0.2993 | 0.351 ± 0.00741
308.15 K, 10000 kPa, x1 = 0.349 | 0.378 ± 0.00813
308.15 K, 10000 kPa, x1 = 0.4013 | 0.398 ± 0.0086
308.15 K, 10000 kPa, x1 = 0.4504 | 0.409 ± 0.00884
308.15 K, 10000 kPa, x1 = 0.4992 | 0.413 ± 0.00884
308.15 K, 10000 kPa, x1 = 0.5505 | 0.409 ± 0.00884
308.15 K, 10000 kPa, x1 = 0.5987 | 0.399 ± 0.0086
308.15 K, 10000 kPa, x1 = 0.6996 | 0.353 ± 0.00765
308.15 K, 10000 kPa, x1 = 0.7496 | 0.319 ± 0.00693
308.15 K, 10000 kPa, x1 = 0.7993 | 0.278 ± 0.00598
308.15 K, 10000 kPa, x1 = 0.8513 | 0.226 ± 0.00478
308.15 K, 10000 kPa, x1 = 0.9003 | 0.163 ± 0.00359
308.15 K, 10000 kPa, x1 = 0.949 | 0.0911 ± 0.00198

CCOC=O [ethyl methanoate] + CCCCCO
298.15 K
Settings | excess molar enthalpy [kcal/mol]
5000 kPa, x1 = 0.0502 | 0.0619 ± 0.00139
5000 kPa, x1 = 0.0995 | 0.145 ± 0.00311
5000 kPa, x1 = 0.1505 | 0.22 ± 0.00478
5000 kPa, x1 = 0.2006 | 0.279 ± 0.00598
5000 kPa, x1 = 0.2494 | 0.324 ± 0.00693
5000 kPa, x1 = 0.2998 | 0.361 ± 0.00765
5000 kPa, x1 = 0.3487 | 0.388 ± 0.00837
5000 kPa, x1 = 0.3992 | 0.404 ± 0.0086
5000 kPa, x1 = 0.4514 | 0.409 ± 0.0086
5000 kPa, x1 = 0.4984 | 0.41 ± 0.00884
5000 kPa, x1 = 0.5503 | 0.406 ± 0.0086
5000 kPa, x1 = 0.6002 | 0.392 ± 0.00837
5000 kPa, x1 = 0.6516 | 0.372 ± 0.00789
5000 kPa, x1 = 0.7007 | 0.346 ± 0.00741
5000 kPa, x1 = 0.7513 | 0.312 ± 0.00669
5000 kPa, x1 = 0.7992 | 0.269 ± 0.00574
5000 kPa, x1 = 0.8484 | 0.215 ± 0.00454
5000 kPa, x1 = 0.899 | 0.151 ± 0.00335
5000 kPa, x1 = 0.951 | 0.0755 ± 0.00167
10000 kPa, x1 = 0.05 | 0.0947 ± 0.00208
10000 kPa, x1 = 0.0992 | 0.177 ± 0.00382
10000 kPa, x1 = 0.1501 | 0.247 ± 0.00526
10000 kPa, x1 = 0.2 | 0.303 ± 0.00645
10000 kPa, x1 = 0.2487 | 0.345 ± 0.00741
10000 kPa, x1 = 0.2991 | 0.376 ± 0.00813
10000 kPa, x1 = 0.3511 | 0.403 ± 0.0086
10000 kPa, x1 = 0.3984 | 0.418 ± 0.00884
10000 kPa, x1 = 0.4505 | 0.426 ± 0.00908
10000 kPa, x1 = 0.501 | 0.426 ± 0.00908
10000 kPa, x1 = 0.5495 | 0.419 ± 0.00884
10000 kPa, x1 = 0.5994 | 0.406 ± 0.0086
10000 kPa, x1 = 0.6508 | 0.382 ± 0.00813
10000 kPa, x1 = 0.7 | 0.353 ± 0.00765
10000 kPa, x1 = 0.7506 | 0.311 ± 0.00669
10000 kPa, x1 = 0.7987 | 0.268 ± 0.00574
10000 kPa, x1 = 0.848 | 0.217 ± 0.00454
10000 kPa, x1 = 0.8987 | 0.154 ± 0.00335
10000 kPa, x1 = 0.9509 | 0.0804 ± 0.00177
